One series is described as follows: Aqueous solubility test. It counts as physicochemical. The conditions noted are these: for solubility: buffer solution, aqueous buffer, thermodynamic from solid, rt, buffer pH 7.4, stirred 48 hours or less, HPLC. Here is the method: The pH of the mixtures was held constant during the study. Excess amounts or a known amount of each component are added to 1 or 0.5 ml of buffer solution and the mixtures were stirred at rt for 48 hours or less, filtered (0.45 μm Millipore) and analyzed by HPLC.

Series [1] is described as follows: Determination of bioavailability: oral pharmacokinetics in Cynomolgus monkeys. As to conditions: dose corresponding to 10 mg/kg of parent drug, 0.5% Carboxymethyl cellulose in water. It is filed as in vivo. Here is the method:
This study was performed in order to determine bioavailability of the present compounds in vivo. All animal experiments are performed in accordance with standards of ethical conduct and appropriate institutional animal care and use policies.
The pharmacokinetic studies of the compounds of the invention were assessed in Cynomolgus monkeys. The study compounds were administrated orally at a dose level corresponding to 10 mg/kg of parent drug. The common aqueous formulation, 0.5% Carboxymethyl cellulose in water, was used as a vehicle. The blood samples were obtained by direct venipuncture at pre-dose, and ten sequential time points after oral administration.
The quantitative bioanalysis of plasma samples were performed in accordance with the guidance Bioanalytical Method Validation (FDA, 2001) and the Guideline on Bioanalytical Method Validation (European Medicines Agency, 2011). Analytical method was optimized for suitable chromatographic (peak shape, retention) and mass spectrometric (ionization efficiency) properties.
A non-compartmental pharmacokinetic analysis was carried out with individual plasma concentration-time curves using WinNonlin® Professional Version 6.3 (Pharsight Corporation): […]
The area under the concentration-time curve from 0 to the last measurable concentration (AUCt) was calculated using the linear-log trapezoidal rule.

The nature of series [2]: Metabolic stability assay. It is filed as in vitro ADME. The conditions noted are these: human liver homogenate or microsomes. Here is the method:
The in vitro metabolic stability of the parent compounds was determined for exemplified compounds using human liver microsome and homogenate incubations. The incubation time points used with or without appropriate cofactors were 0 min and 60 min. Samples were collected at both time points and substrates were detected using LC/PDA/TOF-MS. In vitro metabolic stability (% remaining after 60 min in human liver homogenate or microsomes) of the compounds were calculated and the results are summarized in Table 4.

The target in series [3] is T1, recombinant human 17β-HSD1 (Homo sapiens, UniProt P14061).
T1 construct: made in house; host or cells: Sd9 (Sf9) insect cells, baculovirus (Bac to Bac Expression System)
T1 sequence (P14061 1-328): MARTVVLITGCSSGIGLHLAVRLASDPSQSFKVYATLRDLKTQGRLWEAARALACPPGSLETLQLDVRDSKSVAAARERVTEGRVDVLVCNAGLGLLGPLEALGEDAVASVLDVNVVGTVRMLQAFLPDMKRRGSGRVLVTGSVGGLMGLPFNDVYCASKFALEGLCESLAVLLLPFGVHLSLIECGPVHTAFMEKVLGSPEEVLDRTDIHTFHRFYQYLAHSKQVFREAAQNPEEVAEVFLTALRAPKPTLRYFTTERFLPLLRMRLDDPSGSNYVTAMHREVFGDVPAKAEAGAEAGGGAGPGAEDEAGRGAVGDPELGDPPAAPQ
The series can be described thus: Inhibition of recombinant human 17β-HSD1 (conversion of 3H-estrone to estradiol, HPLC). It is filed as biochemical. The conditions noted are these: inhibitor 1 μM; 30 nM estrone, 1 mM NADPH, 30 min RT; read-out: 17β-HDS1 Inhibition % at 1 μM. Here is the method: 17β-HSD1 production and isolation: Recombinant baculovirus was generated by the “Bac to Bac Expression System” (Invitrogen). Recombinant bacmid was transfected to Sd9 insect cells using “Cellfectin Reagent” (Invitrogen). 60 h later cells were harvested; the microsomal fraction was isolated as described by Puranen, T. J., Poutanen, M. H., Peltoketo, H. E., Vihko, P. T. and Vihko, R. K. (1994) Site-directed mutagenesis of the putative active site of human 17 β-hydroxysteroid dehydrogenase type 1. Biochem. J. 304: 289-293. Aliquots were stored frozen until determination of enzymatic activity.
Assay—Inhibition of recombinant human 17β-HSD1: Protein homogenate (0.1 μg/ml) was incubated in 20 mM KH2PO4 pH 7.4 with 30 nM estrone (including 800 000 cpm/ml of ^3H-estrone) and 1 mM NADPH for 30 min at RT, in the presence of the potential inhibitor at concentrations 1 μM or 0.1 μM. Inhibitor stock solutions were prepared in DMSO. Final concentration of DMSO was adjusted to 1% in all samples. The enzyme reaction was stopped by addition of 10% trichloroacetic acid (final concentration). Samples were centrifuged in a microtiter plate at 4000 rpm for 10 min. Supernatants were applied to reverse phase HPLC on a Waters Symmetry C18 column, equipped with a Waters Sentry Guard column. Isocratic HPLC runs were performed at RT at a flow rate of 1 ml/min in acetonitrile:water 48:52 as running solvent. Radioactivity was monitored in the eluate by a Packard Flow Scintillation Analyzer. Total radioactivity for estrone and estradiol were determined in each sample and percent conversion of estrone to estradiol was calculated according to the following formula:
(§1) Percent inhibition was calculated flowingly: % inhibition=100−% conversion

The target in series [4] is T2, recombinant human 17β-HSD2 (Homo sapiens, UniProt P37059).
T2 construct: made in house; host or cells: Sd9 (Sf9) insect cells, baculovirus (Bac to Bac Expression System)
T2 sequence (P37059 1-387): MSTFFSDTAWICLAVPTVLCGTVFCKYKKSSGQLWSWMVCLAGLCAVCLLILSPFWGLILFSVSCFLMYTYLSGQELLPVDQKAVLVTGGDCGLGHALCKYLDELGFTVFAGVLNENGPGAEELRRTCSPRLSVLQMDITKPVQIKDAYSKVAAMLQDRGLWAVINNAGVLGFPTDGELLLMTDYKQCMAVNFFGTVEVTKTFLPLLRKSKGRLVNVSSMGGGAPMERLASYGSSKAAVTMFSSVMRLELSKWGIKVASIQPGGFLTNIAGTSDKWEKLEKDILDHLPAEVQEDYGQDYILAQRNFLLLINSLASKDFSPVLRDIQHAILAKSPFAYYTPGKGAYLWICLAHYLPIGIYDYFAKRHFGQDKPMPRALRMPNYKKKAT
The series can be described thus: Inhibition of recombinant human 17β-HSD2 (conversion of 3H-estradiol to estrone, HPLC). It counts as biochemical. As to conditions: inhibitor 1 μM; 50 nM estradiol, 1 mM NADH, 30 min RT. Here is the method:
17β-HSD2 production and isolation: Similarly to 17β-HSD1 the Recombinant baculovirus was generated by the “Bac to Bac Expression System” (Invitrogen). Recombinant bacmid was transfected to Sd9 insect cells using “Cellfectin Reagent” (Invitrogen). 60 h later cells were harvested and supernatant were fractionated by the following protocol: • cells were dissolved into 40 ml of A-buffer (40 mM TRIS, pH8.0, 20% glycerol, 20 μM NAD, 0.4 mM PMSF, 150 mM NaCl, 0.5% dodecyl-β-maltoside+protease inhibitor cocktail) • cells were sonicated • lysate was incubated on ice for 15 min • lysate was centrifuged 5000 rpm 15 min, +4° C. • centrifugation of the supernatant 180 000 g 30 min, +4° C. • pellet was dissolved into 8 ml of A-buffer • not resuspended material was removed by centrifugation 5000 rpm 15 min, +4° C. • the clear supernatant was divided into 100 μl aliquots and were stored frozen until determination of enzymatic activity.
The amount of 17β-HSD2 was analysed by immunoblotting and total protein concentration of each extract batch was determined.
Assay—Inhibition of recombinant human 17β-HSD2: Protein homogenate (4 μg/ml) was incubated in 20 mM KH2PO4 pH 8.5 with 50 nM estradiol (including 800 000 cpm/ml of ^3H-estradiol) and 1 mM […] for 30 min at RT, in the presence of the potential inhibitor at concentrations 1 μM or 0.1 μM. Inhibitor stock solutions were prepared in DMSO. Final concentration of DMSO was adjusted to 1% in all samples. The enzyme reaction was stopped by addition of 10% trichloroacetic acid (final concentration). Samples were centrifuged in a microtiter plate at 4000 rpm for 10 min. Supernatants were applied to reverse phase HPLC on a Waters Symmetry C18 column, equipped with a Waters Sentry Guard column. Isocratic HPLC runs were performed at RT at a flow rate ofl ml/min in acetonitrile:water 48:52 as running solvent. Radioactivity was monitored in the eluate by a Packard Flow Scintillation Analyzer. Total radioactivity for estrone and estradiol were determined in each sample and percent conversion of estradiol to estrone was calculated according to the following formula:
as §1

This is an account of results in US10413557B2, “Prodrugs of 17.BETA.-HSD1-inhibitors” (FORENDO PHARMA LTD, priority 2014, dated 2019).

In brackets after ≈: the same amount, converted by molar mass.

Consider `CO/N=C1\C[C@@H](CCC(=O)Nc2ncc(C)s2)C2C3CCc4cc(OC(=O)CN)ccc4C3CC[C@]12C` (stereo partly drawn) [Compound 3, Aminoacetic acid (13S,15R)-13-methyl-17[(E)-methoxyimino]-15-[2-(5-methyl-thiazol-2-ylcarbamoyl)-ethyl]-7,8,9,11,12,13,14,15,16,17-decahydro-6H-cyclopenta[a]phenanthren-3-yl ester], for which the concentration in solution in the series “Aqueous solubility test” (solubility) came to 2.37 µg/mL (≈ 4.52 µM). Besides, in the series “Aqueous solubility test” (comment on Table 5, compared with parent VIV-1), the “aqueous solubility, in words” value is listed as “improved aqueous solubility”.

Regarding “Phosphoric acid mono-{(13S,15R)-17-[(E)-methoxyimino]-13-methyl-15-[2-(5-methylthiazol-2-ylcarbamoyl)ethyl-7,8,9,11,12,13,14,15,16,17-decahydro-6H-cyclopenta[a]phenanthren-3-yl} ester disodium salt [Compound 1a]”, the Cmax (in general, the highest concentration seen after dosing) in series [1] was 286 ng/mL. Besides, in series [1] (0 to last measurable concentration), the AUCt came to 3170 ng·h/mL.

As for `CO/N=C1\C[C@@H](CCC(=O)Nc2ncc(C)s2)C2C3CCc4cc(O)ccc4C3CC[C@]12C` (stereo partly drawn) [VIV-1, 3-{(13S,15R)-3-Hydroxy-17-[(E)-methoxyimino]-13-methyl-7,8,9,11,12,13,14,15,16,17-decahydro-6H-cyclopenta[a]phenanthren-15-yl}-N-(5-methylthiazol-2-yl)propanamide], in series [2], the “In vitro metabolic stability, % remaining after 60 min” value was determined as 73%. Moreover, the inhibition – broadly, the relative decrease from the control value, in per cent – at 1 µM was found to be 95% in series [3] and 4% in series [4]. For the same compound, the solubility (in general, how much of the substance goes into solution per volume) in “Aqueous solubility test” was under 0.52 µg/mL.

`CO/N=C1\C[C@@H](CCC(=O)Nc2ncc(C)s2)C2C3CCc4cc(O)c(Br)cc4C3CC[C@]12C` (stereo partly drawn) [VIV-9, 3-{(13S,15R)-2-Bromo-3-hydroxy-17-[(E)-methoxyimino]-13-methyl-7,8,9,11,12,13,14,15,16,17-decahydro-6H-cyclopenta[a]phenanthren-15-yl}-N-(5-methylthiazol-2-yl)-propanamide]: the “In vitro metabolic stability, % remaining after 60 min” value in series [2] worked out at 34%. Besides, the inhibition at 1 µM in series [3] came out at 81%; in series [4], 1%.
